Like-named read-outs stand apart in the source and are kept apart here.
Tests used:
Myzus persicae = Myzus persicae - spray test (Chinese cabbage leaf discs); format: in vivo; conditions: after 6 days; for pest or weed control at 500 g/ha: Myzus persicae, foliar, 144 h, read-out: efficacy (aphids killed)
Procedure: Myzus persicae—Spray Test
Solvent: 78 parts by weight of acetone • • 1.5 parts by weight of dimethylformamide
Emulsifier: alkylaryl polyglycol ether
To produce further test concentrations, the preparation is diluted with emulsifier-containing water.
After 6 days, the efficacy in % is determined 100% means that all the aphids have been killed; 0% means that none of the aphids have been killed.

[1] = log P by HPLC on reversed-phase C18 columns (OECD Guideline 117); method [a] acidic pH 2.7, method [b] neutral pH 7.8; format: physicochemical; conditions: for chromatographic logP: reversed-phase C18 HPLC column
[2] = HPLC reversed-phase C18, method [a] acidic pH 2.7
[3] = HPLC reversed-phase C18, method [b] neutral pH 7.8
[4] = HPLC reversed-phase C18, method [a] acidic pH 2.7, read-out: logP[a]
[5] = HPLC reversed-phase C18, method [b] neutral pH 7.8, read-out: logP[b]

| chromatographic logP [1, 4] | chromatographic logP [1, 5] | Compound | efficacy (aphids killed) (Myzus persicae; application rate 500 g/ha) [%] | logP[a] [1, 2] | logP[b] [1, 3] | efficacy (aphids killed) (Myzus persicae; application rate 100 g/ha) [%] | pest or weed control at 500 g/ha (Myzus persicae; application rate 500 g/ha) [%] |
| --- | --- | --- | --- | --- | --- | --- | --- |
| – | – | Cc1ccc(-n2cnc3nc(-c4cccnc4)sc3c2=O)cc1SCC(F)(F)F [Compound 47] | 90 | 2.73 | 2.75 | – | – |
| 2.34 | 2.29 | O=c1c2sc(-c3cccnc3)nc2ncn1-c1ccccc1SCC(F)(F)F [Compound 68, 2-(Pyridin-3-yl)-6-{2-[(2,2,2-trifluoroethyl)sulphanyl]phenyl}[1,3]thiazolo[4,5-d]pyrimidin-7(6H)-one] | – | – | – | – | – |
| – | – | CCSc1cccc(-n2cnc3nc(-c4cccnc4)sc3c2=O)c1 [Compound 19] | – | 2.39 | 2.43 | 90 | – |
| – | – | O=c1c2sc(-c3cccnc3)nc2ncn1-c1ccc(F)c([S+]([O-])C(F)(F)F)c1 (stereo not shown) [Compound 18] | 90 | 2.01 | 1.95 | – | – |
| – | – | O=c1c2sc(-c3cccnc3)nc2ncn1CC(F)F [Compound 4] | 100 | 1.19 | – | – | – |
| 1.74 | 1.75 | O=c1c2sc(-c3cccnc3)nc2ncn1-c1ccccc1[S+]([O-])CC(F)(F)F (stereo not shown) [Compound 69, 2-(Pyridin-3-yl)-6-{2-[(2,2,2-trifluoroethyl)sulphinyl]phenyl}[1,3]thiazolo[4,5-d]pyrimidin-7(6H)-one] | – | – | – | – | – |
| 1.35 | 1.43 | CC(C)n1cnc2nc(-c3cccnc3)sc2c1=O [Compound 1, 6-Isopropyl-2-(pyridin-3-yl)[1,3]thiazolo[4,5-d]pyrimidin-7(6H)-one] | – | – | – | – | 100 |
| – | – | CC(C)CSc1cccc(-n2cnc3nc(-c4cccnc4)sc3c2=O)c1 [Compound 26] | 90 | 3.18 | 3.08 | – | – |
| – | – | O=c1c2sc(-c3cccnc3)nc2ncn1Cc1cccnc1 [Compound 35] | 100 | – | 0.72 | – | – |
| – | – | CC(C)[S+]([O-])c1cccc(-n2cnc3nc(-c4cccnc4)sc3c2=O)c1 (stereo not shown) [Compound 25] | 90 | 1.39 | 1.43 | – | – |
| – | – | CCSc1ccc(-n2cnc3nc(-c4cccnc4)sc3c2=O)cc1 [Compound 60] | 100 | 2.41 | 2.45 | – | – |
| 3.25 | 3 | Cc1cc(F)c(-n2c(C)nc3nc(-c4cccnc4)sc3c2=O)cc1SCC(F)(F)F [Compound 56, 6-{2-Fluoro-4-methyl-5-[(2,2,2-trifluoroethyl)sulphanyl]phenyl}-5-methyl-2-(pyridin-3-yl)[1,3]thiazolo[4,5-d]pyrimidin-7(6H)-one] | – | – | – | – | 90 |
| – | – | CN(C)C(=O)Cn1cnc2nc(-c3cccnc3)sc2c1=O [Compound 7] | 100 | 0.65 | – | – | – |
| – | – | Cc1cc(C)c([S+]([O-])CC(F)(F)F)cc1-n1cnc2nc(-c3cncc(F)c3)sc2c1=O (stereo not shown) [Compound 72] | 90 | 2.35 | 2.29 | – | – |
| – | – | Cc1ccc(-n2cnc3nc(-c4cccnc4)sc3c2=O)cc1[S+]([O-])CC(F)(F)F (stereo not shown) [Compound 48] | 100 | 1.86 | 1.85 | – | – |
| 1.7 | – | CC(C)Cn1cnc2nc(-c3cccnc3)sc2c1=O [Compound 3, 6-Isobutyl-2-(pyridin-3-yl)[1,3]thiazolo[4,5-d]pyrimidin-7(6H)-one] | – | – | – | – | 100 |
| 2.88 | 2.77 | Cc1cc(C)c(-n2cnc3nc(-c4cncnc4)sc3c2=O)cc1SCC(F)(F)F [Compound 76, 6-{2,4-Dimethyl-5-[(2,2,2-trifluoroethyl)sulphanyl]phenyl}-2-(pyrimidin-5-yl)[1,3]thiazolo[4,5-d]pyrimidin-7(6H)-one] | – | – | – | – | 90 |
| – | – | O=c1c2sc(-c3cccnc3)nc2ncn1-c1cc(SCC(F)(F)F)ccc1F [Compound 46] | 90 | 2.60 | 2.56 | – | – |
| – | – | O=c1c2sc(-c3cccnc3)nc2ncn1CC(F)(F)C(F)F [Compound 6] | 90 | 1.57 | – | – | – |
| – | – | O=c1c2sc(-c3cccnc3)nc2ncn1-c1cccc(C(F)(F)F)c1 [Compound 9] | 100 | 2.26 | 2.23 | – | – |
| – | – | CSc1cccc(-n2cnc3nc(-c4cccnc4)sc3c2=O)c1 [Compound 13] | 90 | 2.09 | 2.08 | – | – |

| chromatographic logP [1, 4] | chromatographic logP [1, 5] | Compound | efficacy (aphids killed) (Myzus persicae; application rate 500 g/ha) [%] | logP[a] [1, 2] | logP[b] [1, 3] | efficacy (aphids killed) (Myzus persicae; application rate 100 g/ha) [%] | pest or weed control at 500 g/ha (Myzus persicae; application rate 500 g/ha) [%] |
| --- | --- | --- | --- | --- | --- | --- | --- |
| – | – | Cc1cc(C)c(-n2cnc3nc(-c4cncc(F)c4)sc3c2=O)cc1SCC(F)(F)F [Compound 71] | 90 | 3.64 | 3.34 | – | – |
| – | – | Cc1ccc(-n2cnc3nc(-c4cncnc4)sc3c2=O)cc1 [Compound 75] | – | 1.80 | 1.72 | – | – |
| 3.04 | 2.98 | Cc1cc(C)c(-n2cnc3nc(-c4cccnc4)sc3c2=O)cc1SCC(F)(F)F [Compound 49, 6-{2,4-Dimethyl-5-[(2,2,2-trifluoroethyl)sulphanyl]phenyl}-2-(pyridin-3-yl)[1,3]thiazolo[4,5-d]pyrimidin-7(6H)-one] | – | – | – | – | 100 |
| – | – | C[S+]([O-])c1cccc(-n2cnc3nc(-c4cccnc4)sc3c2=O)c1 (stereo not shown) [Compound 14] | 90 | 1.04 | 1.09 | – | – |
| 2.4 | 2.35 | Cc1cc(F)c(-n2nnc3nc(-c4cccnc4)sc3c2=O)cc1[S+]([O-])CC(F)(F)F (stereo not shown) [Compound 59, 3-{2-Fluoro-4-methyl-5-[(2,2,2-trifluoroethyl)sulphinyl]phenyl}-6-(pyridin-3-yl)[1,3]thiazolo[4,5-d][1,2,3]triazin-4(3H)-one] | – | – | – | – | 90 |
| – | – | CN(C)C(=O)CSc1cccc(-n2cnc3nc(-c4cccnc4)sc3c2=O)c1 [Compound 52] | 90 | 1.57 | 1.55 | – | – |
| – | – | O=c1c2sc(-c3cccnc3)nc2ncn1-c1cccc(OCC(F)(F)F)c1 [Compound 41] | 90 | 2.33 | 2.34 | – | – |
| 1.53 | 1.52 | O=c1c2sc(-c3cccnc3)nc2ncn1CC1CC1 [Compound 39, 6-(Cyclopropylmethyl)-2-(pyridin-3-yl)[1,3]thiazolo[4,5-d]pyrimidin-7(6H)-one] | – | – | – | – | 100 |
| 2.95 | 2.91 | Cc1cc(F)c(-n2cnc3nc(-c4cccnc4)sc3c2=O)cc1SCC(F)(F)F [Compound 21, 6-{2-Fluoro-4-methyl-5-[(2,2,2-trifluoroethyl)sulphanyl]phenyl}-2-(pyridin-3-yl)[1,3]thiazolo[4,5-d]pyrimidin-7(6H)-one] | – | – | – | – | 90 |
| – | – | O=c1c2sc(-c3cccnc3)nc2ncn1-c1ccc(F)c(SC(F)(F)F)c1 [Compound 17] | 90 | 2.70 | 2.66 | – | – |
| 1.49 | 1.45 | Cc1cc(F)c(-n2cnc3nc(-c4ccc[n+]([O-])c4)sc3c2=O)cc1[S+]([O-])CC(F)(F)F (stereo not shown) [Compound 23, 6-{2-Fluoro-4-methyl-5-[(2,2,2-trifluoroethyl)sulphinyl]phenyl}-2-(1-oxidopyridin-3-yl)[1,3]thiazolo[4,5-d]pyrimidin-7(6H)-one] | – | – | – | – | 100 |
| – | – | Cc1ccc(-n2cnc3nc(-c4cccnc4)sc3c2=O)cc1[S+](C)[O-] (stereo not shown) [Compound 16] | 90 | 1.25 | 1.26 | – | – |
| 1.36 | 1.42 | Cc1nc(Cn2cnc3nc(-c4cccnc4)sc3c2=O)cs1 [Compound 38, 6-[(2-Methyl-1,3-thiazol-4-yl)methyl]-2-(pyridin-3-yl)[1,3]thiazolo[4,5-d]pyrimidin-7(6H)-one] | – | – | – | – | – |
| – | – | Cc1cccc(-n2cnc3nc(-c4cccnc4)sc3c2=O)c1 [Compound 8] | 90 | 1.94 | 1.94 | – | – |
| – | – | O=c1c2sc(-c3cccnc3)nc2ncn1C1CC1 [Compound 2] | 100 | – | 1.05 | – | – |
| – | – | CC(c1ncnn1C)n1cnc2nc(-c3cccnc3)sc2c1=O (stereo not shown) [Compound 86] | 90 | 1.01 | 1.07 | – | – |
| 2.47 | 2.43 | O=c1c2sc(-c3cccnc3)nc2ncn1Cc1cccc(C(F)(F)F)c1 [Compound 28, 2-(Pyridin-3-yl)-6-[3-(trifluoromethyl)benzyl][1,3]thiazolo[4,5-d]pyrimidin-7(6H)-one] | – | – | – | – | – |
| – | – | Cc1cc(SC(F)(F)F)ccc1-n1cnc2nc(-c3cccnc3)sc2c1=O [Compound 64] | 100 | 2.91 | 2.89 | – | – |
| – | – | COc1cccc(Cn2cnc3nc(-c4cccnc4)sc3c2=O)c1 [Compound 32] | – | 1.91 | 1.92 | – | – |
| – | – | CN(C)C(=O)c1cc2cc(-n3cnc4nc(-c5cccnc5)sc4c3=O)ccc2s1 [Compound 65] | – | 1.70 | 1.70 | – | – |
| 1.63 | 1.72 | CN(C)S(=O)(=O)c1cccc(-n2cnc3nc(-c4cccnc4)sc3c2=O)c1 [Compound 42, N,N-Dimethyl-3-[7-oxo-2-(pyridin-3-yl)[1,3]thiazolo[4,5-d]pyrimidin-6(7H)-yl]benzenesulphonamide] | – | – | – | – | – |
